ChEMBL document CHEMBL1201862, “PubChem BioAssay data set” (2004)
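1) Cells in 96-well plates. 2) Compound, 48 h, 5 concentrations. 3) Linear interpolation between surrounding doses. 4) Unreached endpoint = highest concentration. Here, GI50 denotes the concentration required for 50% inhibition of growth.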 Active and inactive are the calls of the source. No stated cut-off is given here; in the data, active = GI50 up to about 1.1 µM and inactive = higher.

Key:
Test in all cases: NCI tumour cell line growth inhibition, 48 h
OVCAR-4 = test system: OVCAR-4
SNB-75 = test system: SNB-75
HCT-15 = test system: HCT-15
UO-31 = test system: UO-31
HT-29 = test system: HT-29
M14 = test system: M14
IGROV-1 = test system: IGROV-1
SN12C = test system: SN12C
HL-60 = test system: HL-60
UACC-62 = test system: UACC-62
786-0 = test system: 786-0
HOP-92 = test system: HOP-92
NCI-H522 = test system: NCI-H522
SF-539 = test system: SF-539
UACC-257 = test system: UACC-257
SK-MEL-5 = test system: SK-MEL-5
CCRF-CEM = test system: CCRF-CEM
HOP-62 = test system: HOP-62
COLO 205 = test system: COLO 205
LOX IMVI = test system: LOX IMVI

Structure (SMILES)	GI50 (OVCAR-4)	GI50 (SNB-75)	GI50 (HCT-15) [µM]	GI50 (UO-31)	GI50 (HT-29)	GI50 (M14)	GI50 (IGROV-1)	GI50 (SN12C)	GI50 (HL-60)	GI50 (UACC-62)	GI50 (786-0)	GI50 (HOP-92)	GI50 (NCI-H522)	GI50 (SF-539)	GI50 (UACC-257)	GI50 (SK-MEL-5)	GI50 (CCRF-CEM)	GI50 (HOP-62)	GI50 (COLO 205)	GI50 (LOX IMVI)
O=C(CC/C(C/C(=N/O)c1ccc(F)cc1)=N/O)N(Cc1ccccc1)Cc1ccccc1	> 100 µM (inactive)	> 100 µM (inactive)	> 100	> 100 µM (inactive)	> 100 µM (inactive)	> 100 µM (inactive)	> 100 µM (inactive)	> 100 µM (inactive)	> 100 µM (inactive)	> 100 µM (inactive)	> 100 µM (inactive)	> 100 µM (inactive)	> 100 µM (inactive)	> 100 µM (inactive)	> 100 µM (inactive)	> 100 µM (inactive)	> 100 µM (inactive)	> 100 µM (inactive)	73.8 µM (inactive)	> 100 µM (inactive)
NC(=O)c1oc([N+](=O)[O-])c(-c2ccccc2)c1-c1ccccc1	12.2 µM (inactive)	65.9 µM (inactive)	15.5	16.3 µM (inactive)	27.2 µM (inactive)	17.7 µM (inactive)	12.9 µM (inactive)	0.0367 µM (active)	25.1 µM (inactive)	8.65 µM (inactive)	25.1 µM (inactive)	16.1 µM (inactive)	12.6 µM (inactive)	18.5 µM (inactive)	18 µM (inactive)	0.597 µM (active)	19.1 µM (inactive)	25.8 µM (inactive)	16.8 µM (inactive)	14.1 µM (inactive)
CC1=NN(c2ccccc2)C(=O)C12[C@H](c1ccccc1)C2(C#N)C#N (stereo not given in full)	5.46 µM (inactive)	6.11 µM (inactive)	2.49	14.7 µM (inactive)	4.59 µM (inactive)	1.44 µM (inactive)	14.2 µM (inactive)	3.95 µM (inactive)	2.55 µM (inactive)	3.44 µM (inactive)	2.41 µM (inactive)	2.64 µM (inactive)	2.88 µM (inactive)	14.6 µM (inactive)	5.96 µM (inactive)	4.48 µM (inactive)	0.457 µM (active)	17.3 µM (inactive)	2.29 µM (inactive)	1.78 µM (inactive)
CCC1C(=O)C[C@H]2[C@@H]3C(O)CC4=CC(=O)CC[C@]4(C)[C@H]3CC[C@]12C (stereo not given in full)	> 50 µM (inactive)	> 50 µM (inactive)	> 50	> 50 µM (inactive)	> 50 µM (inactive)	> 50 µM (inactive)	> 50 µM (inactive)	> 50 µM (inactive)	> 50 µM (inactive)	> 50 µM (inactive)	> 50 µM (inactive)	> 50 µM (inactive)	> 50 µM (inactive)	> 50 µM (inactive)	> 50 µM (inactive)	> 50 µM (inactive)	> 50 µM (inactive)	> 50 µM (inactive)	> 50 µM (inactive)	> 50 µM (inactive)
COc1cc(/C=C\c2cccnc2)cc(OC)c1OC	> 100 µM (inactive)	58.3 µM (inactive)	39.4	27.9 µM (inactive)	40.7 µM (inactive)	26.8 µM (inactive)	57.9 µM (inactive)	42.6 µM (inactive)	18.9 µM (inactive)	46.3 µM (inactive)	67.9 µM (inactive)	26 µM (inactive)	25.3 µM (inactive)	36.6 µM (inactive)	68.4 µM (inactive)	18.9 µM (inactive)	25.7 µM (inactive)	37.8 µM (inactive)	29.3 µM (inactive)	26.2 µM (inactive)
CCOC(=O)C(SCCO)C(C(=O)OCC)n1ccc(=O)[nH]c1=O (stereo not given)	> 49.3 µM (inactive)	25.4 µM (inactive)	17.5	> 92 µM (inactive)	23.5 µM (inactive)	27.3 µM (inactive)	31.9 µM (inactive)	22.1 µM (inactive)	3.16 µM (inactive)	20.4 µM (inactive)	16.6 µM (inactive)	13.8 µM (inactive)	3.77 µM (inactive)	31.5 µM (inactive)	> 63.7 µM (inactive)	63.5 µM (inactive)	1.98 µM (inactive)	> 60.7 µM (inactive)	17.6 µM (inactive)	14.8 µM (inactive)
O=C(Nc1nc2ncn(CCO)c2c(=O)[nH]1)c1ccccc1	> 100 µM (inactive)	> 100 µM (inactive)	> 100	> 100 µM (inactive)	> 100 µM (inactive)	> 100 µM (inactive)	> 100 µM (inactive)	> 100 µM (inactive)	> 100 µM (inactive)	> 100 µM (inactive)	> 100 µM (inactive)	> 100 µM (inactive)	> 100 µM (inactive)	> 100 µM (inactive)	> 100 µM (inactive)	> 100 µM (inactive)	> 100 µM (inactive)	> 100 µM (inactive)	> 100 µM (inactive)	> 100 µM (inactive)
O=C1NC(=O)C(CC2CCCCCCCCCCC2=O)C(=O)N1 (stereo not given)	> 100 µM (inactive)	> 100 µM (inactive)	> 100	74 µM (inactive)	74 µM (inactive)	> 100 µM (inactive)	> 100 µM (inactive)	> 100 µM (inactive)	4.94 µM (inactive)	> 100 µM (inactive)	> 100 µM (inactive)	> 100 µM (inactive)	> 100 µM (inactive)	> 100 µM (inactive)	> 100 µM (inactive)	> 100 µM (inactive)	1.2 µM (inactive)	> 100 µM (inactive)	> 100 µM (inactive)	> 100 µM (inactive)
C/C(=N\N=C(/S)N1CCCCCC1)c1cccc[n+]1[O-]	8.17 µM (inactive)	10.5 µM (inactive)	0.845	7.55 µM (inactive)	0.31 µM (active)	2.72 µM (inactive)	1.91 µM (inactive)	13.8 µM (inactive)	0.336 µM (active)	1.88 µM (inactive)	1.53 µM (inactive)	11.1 µM (inactive)	0.592 µM (active)	4.54 µM (inactive)	1.33 µM (inactive)	2.22 µM (inactive)	0.109 µM (active)	1.12 µM (active)	0.499 µM (active)	4.52 µM (inactive)
COc1ccc(C2c3cc4c(cc3OC(N3CCOCC3)C2C)OCO4)cc1OC (stereo not given)	15.8 µM (inactive)	2.99 µM (inactive)	4.76	18 µM (inactive)	4.69 µM (inactive)	5.38 µM (inactive)	7.64 µM (inactive)	22.6 µM (inactive)	3.06 µM (inactive)	5.48 µM (inactive)	8.15 µM (inactive)	8.95 µM (inactive)	5.51 µM (inactive)	3.89 µM (inactive)	16.7 µM (inactive)	4.06 µM (inactive)	4.28 µM (inactive)	12 µM (inactive)	4.76 µM (inactive)	6.11 µM (inactive)
O=C(O)CNC(=O)c1cccc2c(=O)c3ccccc3[nH]c12	> 100 µM (inactive)	84.7 µM (inactive)	> 100	70.1 µM (inactive)	> 100 µM (inactive)	> 100 µM (inactive)	26.9 µM (inactive)	> 100 µM (inactive)	> 100 µM (inactive)	99.8 µM (inactive)	> 100 µM (inactive)	> 100 µM (inactive)	> 100 µM (inactive)	> 100 µM (inactive)	> 100 µM (inactive)	99.8 µM (inactive)	97.3 µM (inactive)	> 100 µM (inactive)	> 100 µM (inactive)	> 100 µM (inactive)
COC(=O)C1(F)C(=O)NC(=O)NC1O (stereo not given)	80 µM (inactive)	> 65 µM (inactive)	61.5	59.4 µM (inactive)	> 66.5 µM (inactive)	> 100 µM (inactive)	> 100 µM (inactive)	> 100 µM (inactive)	31 µM (inactive)	> 100 µM (inactive)	> 100 µM (inactive)	> 58.9 µM (inactive)	> 100 µM (inactive)	25.4 µM (inactive)	> 100 µM (inactive)	> 100 µM (inactive)	> 89.1 µM (inactive)	> 100 µM (inactive)	40.4 µM (inactive)	> 100 µM (inactive)
